# Laboratory results: ChEMBL document CHEMBL1201862, “PubChem BioAssay data set” (2004)
#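 Tested at 5 concentrations; 48 h exposure; 96-well plates; endpoints linearly interpolated, else capped at highest concentration. GI50 is the concentration that inhibits growth by half.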 Activity calls are given as the source filed them. Cut-off read from the data, not from the text of the source: active = GI50 up to about 1.1 µM and inactive = higher.
# Legend:
# Assay in all cases: growth of human tumour cells (NCI), 48 h
# 786-0 = tested on: 786-0
# A498 = tested on: A498
# CAKI-1 = tested on: CAKI-1
# CCRF-CEM = tested on: CCRF-CEM
# EKVX = tested on: EKVX
# HCT-15 = tested on: HCT-15
# HT-29 = tested on: HT-29
# Hs-578T = tested on: Hs-578T
# IGROV-1 = tested on: IGROV-1
# M14 = tested on: M14
# NCI-H226 = tested on: NCI-H226
# NCI/ADR-RES = tested on: NCI/ADR-RES
# SF-539 = tested on: SF-539
# SK-OV-3 = tested on: SK-OV-3
# SN12C = tested on: SN12C
# SNB-75 = tested on: SNB-75
# SW-620 = tested on: SW-620
# T47D = tested on: T47D
# NCI-H522 = tested on: NCI-H522
# SR = tested on: SR
SMILES,GI50 (786-0),GI50 (A498),GI50 (CAKI-1),GI50 (CCRF-CEM),GI50 (EKVX),GI50 (HCT-15) [µM],GI50 (HT-29),GI50 (Hs-578T),GI50 (IGROV-1),GI50 (M14),GI50 (NCI-H226),GI50 (NCI/ADR-RES),GI50 (SF-539),GI50 (SK-OV-3),GI50 (SN12C),GI50 (SNB-75),GI50 (SW-620),GI50 (T47D),GI50 (NCI-H522),GI50 (SR)
Cc1nc2c(O)nc3ccccc3c2o1,> 100 µM (inactive),> 100 µM (inactive),> 100 µM (inactive),> 100 µM (inactive),48.9 µM (inactive),> 100,> 100 µM (inactive),> 100 µM (inactive),32 µM (inactive),> 100 µM (inactive),> 100 µM (inactive),> 100 µM (inactive),> 100 µM (inactive),> 100 µM (inactive),> 100 µM (inactive),> 100 µM (inactive),> 100 µM (inactive),> 100 µM (inactive),–,–
Cc1ccc(S(=O)(=O)CC2CCCn3c2c(C#N)c2ccccc23)cc1 (stereo not given),> 100 µM (inactive),> 100 µM (inactive),> 100 µM (inactive),> 100 µM (inactive),> 100 µM (inactive),> 100,> 100 µM (inactive),> 100 µM (inactive),> 100 µM (inactive),> 100 µM (inactive),> 100 µM (inactive),65.5 µM (inactive),> 100 µM (inactive),> 100 µM (inactive),> 100 µM (inactive),> 100 µM (inactive),> 100 µM (inactive),73.3 µM (inactive),> 100 µM (inactive),–
COc1cc2c(c(OC)c1OC)-c1ccc(SC)c(=O)cc1C(CC(=O)Oc1cccc([N+](=O)[O-])c1)C2 (stereo not given),0.473 µM (active),0.0277 µM (active),0.685 µM (active),0.745 µM (active),3.38 µM (inactive),0.4,0.362 µM (active),–,3.44 µM (inactive),0.412 µM (active),0.764 µM (active),–,0.263 µM (active),0.0736 µM (active),1.11 µM (active),0.268 µM (active),0.4 µM (active),–,0.493 µM (active),0.459 µM (active)
CCOC(=O)/C1=C(\C)N(c2ccc(C)cc2)C(=O)c2ccccc2C(=O)c2c(O)ccc(O)c21,18.2 µM (inactive),–,20 µM (inactive),20.6 µM (inactive),24.8 µM (inactive),14.4,19.5 µM (inactive),29.2 µM (inactive),18.9 µM (inactive),19.1 µM (inactive),42.4 µM (inactive),14.9 µM (inactive),26.5 µM (inactive),35.9 µM (inactive),25.9 µM (inactive),0.634 µM (active),27.6 µM (inactive),13.4 µM (inactive),18.7 µM (inactive),–
CCN(CC)/[N+]([O-])=N/OCC(C)O (stereo not given),> 100 µM (inactive),> 100 µM (inactive),> 100 µM (inactive),> 100 µM (inactive),> 100 µM (inactive),> 100,> 100 µM (inactive),–,> 100 µM (inactive),> 100 µM (inactive),> 100 µM (inactive),–,> 100 µM (inactive),> 100 µM (inactive),> 100 µM (inactive),> 100 µM (inactive),> 100 µM (inactive),–,> 100 µM (inactive),> 100 µM (inactive)
C/C(=N\n1c(Cc2ccccc2)n[nH]c1=O)c1ccc([N+](=O)[O-])cc1,> 100 µM (inactive),–,78.5 µM (inactive),–,74.5 µM (inactive),> 100,> 100 µM (inactive),64.4 µM (inactive),> 100 µM (inactive),> 100 µM (inactive),> 100 µM (inactive),> 100 µM (inactive),–,–,> 100 µM (inactive),–,> 100 µM (inactive),94 µM (inactive),> 100 µM (inactive),–
COC1OC(CO)C(O)C1N (stereo not given),> 100 µM (inactive),> 100 µM (inactive),> 100 µM (inactive),> 100 µM (inactive),> 100 µM (inactive),> 100,> 100 µM (inactive),–,> 100 µM (inactive),> 100 µM (inactive),> 100 µM (inactive),–,> 100 µM (inactive),> 100 µM (inactive),> 100 µM (inactive),> 100 µM (inactive),> 100 µM (inactive),–,> 100 µM (inactive),> 100 µM (inactive)
COc1c(Br)cc2ccccc2c1-c1c(OC)c(Br)cc2ccccc12,> 100 µM (inactive),> 100 µM (inactive),> 100 µM (inactive),> 100 µM (inactive),> 100 µM (inactive),> 100,> 100 µM (inactive),> 100 µM (inactive),> 100 µM (inactive),> 100 µM (inactive),> 100 µM (inactive),> 100 µM (inactive),> 100 µM (inactive),> 100 µM (inactive),–,> 100 µM (inactive),> 100 µM (inactive),7.01 µM (inactive),74.6 µM (inactive),–
CC(=O)Oc1c2oc3cc(O)c(O)cc3c2c(OC(C)=O)c2oc3cc(O)c(O)cc3c12 [POLYOZELLIN],25.2 µM (inactive),–,29.2 µM (inactive),2.57 µM (inactive),20.6 µM (inactive),25.2,26.4 µM (inactive),12.2 µM (inactive),18.2 µM (inactive),23.4 µM (inactive),19.2 µM (inactive),35.3 µM (inactive),23 µM (inactive),20.8 µM (inactive),20.9 µM (inactive),15.8 µM (inactive),23.2 µM (inactive),–,10.3 µM (inactive),4.4 µM (inactive)
Cc1c2ccccc2c(C)c2c3c(ccc12)C(=O)C=CC3=O,25.7 µM (inactive),> 100 µM (inactive),22.1 µM (inactive),2.49 µM (inactive),30.2 µM (inactive),19.1,28 µM (inactive),–,20 µM (inactive),30 µM (inactive),> 89.5 µM (inactive),–,35.6 µM (inactive),> 60.5 µM (inactive),27.8 µM (inactive),> 63.5 µM (inactive),21.6 µM (inactive),–,13.6 µM (inactive),8.36 µM (inactive)
C=C(CBr)CCCOCc1ccccc1,36.6 µM (inactive),35.2 µM (inactive),5.6 µM (inactive),26.1 µM (inactive),22.9 µM (inactive),22,21.2 µM (inactive),–,21.4 µM (inactive),16.7 µM (inactive),15.5 µM (inactive),20.2 µM (inactive),19.5 µM (inactive),35.5 µM (inactive),24.5 µM (inactive),–,32.7 µM (inactive),37.8 µM (inactive),22.3 µM (inactive),31.3 µM (inactive)
N#CCCN(CCC#N)c1ccc(C(=N/c2ccc(Cl)cc2)/N=N/c2ccccc2)cc1,> 100 µM (inactive),> 100 µM (inactive),> 100 µM (inactive),> 100 µM (inactive),99.5 µM (inactive),27.4,> 100 µM (inactive),> 100 µM (inactive),55.7 µM (inactive),> 100 µM (inactive),> 100 µM (inactive),36.3 µM (inactive),> 100 µM (inactive),> 100 µM (inactive),> 100 µM (inactive),59.4 µM (inactive),> 100 µM (inactive),12.8 µM (inactive),36.6 µM (inactive),–
CN(C)CCNC(=O)c1ccc2ccc3cccnc3c2n1,11.1 µM (inactive),14.3 µM (inactive),13.1 µM (inactive),18.9 µM (inactive),15.5 µM (inactive),11.8,9.14 µM (inactive),–,25.7 µM (inactive),16.4 µM (inactive),14.3 µM (inactive),–,8.63 µM (inactive),19.5 µM (inactive),13.8 µM (inactive),16 µM (inactive),5.98 µM (inactive),–,7.23 µM (inactive),4.24 µM (inactive)
Cc1cn(CCCCC2=NCCCN2)c(=O)[nH]c1=O,> 23.9 µM (inactive),> 31.8 µM (inactive),> 15.1 µM (inactive),–,> 29.9 µM (inactive),> 32.2,–,> 34.4 µM (inactive),> 26.5 µM (inactive),> 25.2 µM (inactive),> 57.7 µM (inactive),> 34.8 µM (inactive),–,> 29.6 µM (inactive),> 100 µM (inactive),–,> 28.3 µM (inactive),–,> 30.8 µM (inactive),> 28.9 µM (inactive)
COc1cc(OC)c(OC)cc1/C=C/c1cc[n+](C)c2ccccc12,25.2 µM (inactive),> 100 µM (inactive),> 100 µM (inactive),14.8 µM (inactive),50.2 µM (inactive),> 100,30.5 µM (inactive),–,40 µM (inactive),60.8 µM (inactive),–,> 100 µM (inactive),–,52.2 µM (inactive),–,47.4 µM (inactive),36.2 µM (inactive),33.4 µM (inactive),–,17.8 µM (inactive)
CCN(CC)CC[n+]1ccc2c(C)c3[nH]c4ccccc4c3c(C)c2c1,0.56 µM (active),3.04 µM (inactive),1.99 µM (inactive),0.204 µM (active),1.02 µM (active),22,0.684 µM (active),0.0405 µM (active),–,0.923 µM (active),–,–,0.612 µM (active),–,0.285 µM (active),0.276 µM (active),0.51 µM (active),0.188 µM (active),0.406 µM (active),0.608 µM (active)
c1ccc(N2CCN(CCCN3CCc4c([nH]c5ccccc45)C3c3cccnc3)CC2)cc1 (stereo not given),33.9 µM (inactive),> 100 µM (inactive),> 100 µM (inactive),88.3 µM (inactive),> 100 µM (inactive),56,22.9 µM (inactive),–,> 100 µM (inactive),20.2 µM (inactive),> 100 µM (inactive),–,83.9 µM (inactive),> 100 µM (inactive),> 54.6 µM (inactive),> 100 µM (inactive),> 100 µM (inactive),–,86.9 µM (inactive),27 µM (inactive)
